Experimental data published in US20160369234A1, “CONVERSION OF SOMATIC CELLS TO INDUCED REPROGRAMMED NEURAL STEM CELLS (IRNSCS)” (Hoffmann-La Roche Inc., priority 2010, published 2016).

What was measured:
Assay type in all cases: cell-based
[1] = system: Human fibroblasts IMR90; test: Generation of GFP+ irNSC neurospheres, Fasudil versus Balanol-like-324 compound in induction medium (FIG. 11)
Description: FIG. 11: Comparison of Fasudil versus Balanol-like-324 compound stimulation to generate irNSC neurospheres. Human fibroblasts IMR90 were trypsinized and infected in a small volume with: Sox2, Bmi1, nestin GFP reporter using the induction medium (NeuroCult® NS-A Proliferation Kit (Human, StemCells Technologies) with FGF, EGF BDNF 20 ng/ml; Heparin 2 μg/ml; Polybrene 4 μg/ml) supplemented with Fasudil 10 μM (hatched graph) or Balanol-like-324 compound 2 μM (black graph). Fibroblasts were plated in a normal tissue culture plate at a concentration of 10000-30000 cells/cm^2. Day 1: Media change with fresh induction medium. Day 4: The GFP+ neurospheres bigger than 50 μm were counted.
Induction Medium: N2B27 (N2B27 is a 1:1 mixture of DMEM/F12 (Gibco, Paisley, UK) supplemented with N2 and B27 (both from Gibco) supplemented with human EGF (Peprotech) 30 ng/ml, human FGF2 30 ng/ml (Peprotech), human BDNF (Roche) 20 ng/ml and Fasudil (Calbiochem) 10 μM or Balanol-like-324 compound (N-{(3R,4R)-4-[4-(2-Fluoro-6-hydroxy-3-methoxy-benzoyl)-benzoylamino]-azepan-3-yl}-4-hydroxy-3,5-dimethyl-benzamide) 2 μM.
1. Generation of the irNSCs: • 200.000 IMR90 human fibroblasts infected with the lentiviruses for different genes combination (multiplicity of infection (M.O.I.) used for each single lentivirus 30) and the reporter nestin GFP lentivirus (M.O.I. used 10) in an eppendorf with 300 μl induction medium with polybrene (hexadimethrine bromide, Sigma) 4 μg/ml. • Incubate at room temperature for 15 min. • Plate the 300 μl in 1.7 ml induction medium in a well of a 6-well-plate tissue treated • Day 1, renew the 2 ml of induction medium/each well • Day 3, harvest of the neurospheres collecting carefully the 2 ml with the floating spheres • Expand the neurospheres2. […]

[2] = system: irNSC neurospheres from human fibroblasts IMR90; test: Expansion of irNSC neurospheres with or without Fasudil in expansion medium (FIG. 9); settings: expansion medium with Fasudil vs without; Day 15
Description: FIG. 9: Generation of a batch of irNSC neurospheres for expansion and characterization. 3.6 million human fibroblasts IMR90 were trypsinized and infected in a small volume with: Sox2, Bmi1, nestin GFP reporter using the induction medium (N2B27 with FGF, EGF 30 ng/ml BDNF 20 ng/ml) supplemented with Fasudil 10 μM and Polybrene 4 μg/ml. From Day 4 to Day 8: The GFP+ neurospheres bigger than 50 μm were harvested and further used for expansion. Half of the neurospheres have been expanded using the expansion medium (N2B27 with FGF, EGF 30 ng/ml BDNF 20 ng/ml) with Fasudil and the other half without Fasudil.
The irNSCs have a typical NSC morphology and were Sox2 and Nestin positive (FIG. 10).
Expansion Medium: N2B27 supplemented with human EGF (Peprotech) 30 ng/ml, human FGF2 30 ng/ml (Peprotech), human BDNF (Roche) 20 ng/ml, or
1. […]

[3] = system: human fibroblasts; test: Reprogramming of human fibroblasts to irNSCs with or without Fasudil in induction medium, neurosphere count (FIG. 6); settings: Fasudil added to induction medium, nestin reporter lentivirus; day 3
Excerpt: The method can be illustrated by reference to FIG. 1 herein, which depicts a method according to the invention being used for converting human fibroblasts to neural stem cells (NSCs). In this method human fibroblast were trypsinized at day 0, counted and their viability determined. Between 1.0×10^5-3.0×10^5 trypsinized fibroblasts were then resuspended in the induction medium and the combination of genes delivered as lentiviruses. At the induction medium polybrene (hexadimethrine bromide) was added to increase the efficiency of the lentiviruses transduction. The infection was performed for 15 minutes in an eppendorf tube. In combination with the genes, a human Nestin GFP reporter was used. Nestin is a well known marker expressed specifically in NSCs. In the nestin reporter the fluorescent protein GFP is under expression of the human nestin promoter (FIG. 2), therefore it allows an easy screen for induced reprogrammed neural stem cells (irNSCs) GFP+.
The infected cells were plated in tissue culture plates using a concentration of 10000-30000 cells/cm^2 in the appropriate volume of induction medium. At day 1 the total induction medium was renewed. It was possible to identify some irNSC GFP+ (FIG. 3) with a clear change in morphology compared to the human fibroblasts. The irNSCs GFP+ acquired a bipolar and elongated morphology with a more condensed cytoplasm, typical of NSCs. […]

[4] = system: Human fibroblasts IMR90; test: Pre-treatment of human fibroblasts with Valproic Acid before infection, yield of GFP+ irNSC neurospheres (FIG. 12); settings: VPA 1 mM pre-treatment 48 hours vs without; Day 7; n=3
Description: FIG. 12: Pre-treatment of human fibroblasts with Valproic Acid (VPA) improves the yield of GFP+ irNSC neurospheres. Human fibroblasts IMR90 were pre-treated for 48 hours with or without the HDAC inhibitor Valproic Acid (2-propyl-pentanoic acid, monosodium salt) (1 mM) prior infection with: Sox2, Bmi1, nestin GFP reporter. Induction medium (NeuroCult® NS-A Proliferation Kit (Human, StemCells Technologies) with FGF, EGF BDNF 20 ng/ml; Heparin 2 μg/ml; Balanol-like-324 2 μM). Day 7: The Neurospheres bigger than 50 μm were counted (Panel A) and the average number of GFP+ irNSC per neurosphere is reported (Panel B). Representative pictures for the irNSCs neuropheres generated with the VPA pre-treatment (Panel C).
To increase the yield of irNSCs, human fibroblasts were pretreated with or without the HDAC inhibitor Valproic Acid (VPA, 2-propyl-pentanoic acid, monosodium salt). Towards this end, the human fibroblasts were incubated in DMEM/F12 supplemented with FBS 10% and L-glutamine supplemented with 1 mM VPA prior to infection (FIG. 12).

COc1ccc(O)c(C(=O)c2ccc(C(=O)N[C@@H]3CCCNC[C@H]3NC(=O)c3cc(C)c(O)c(C)c3)cc2)c1F [Balanol-like-324 compound, N-{(3R,4R)-4-[4-(2-Fluoro-6-hydroxy-3-methoxy-benzoyl)-benzoylamino]-azepan-3-yl}-4-hydroxy-3,5-dimethyl-benzamide]
reproducibility of neurosphere generation versus Fasudil ([1]; Balanol-like-324 2 μM vs Fasudil 10 μM, Day 4, STDEV, n=3): better reproducibility | increase in efficiency of the neurospheres generation (GFP+ neurospheres bigger than 50 μm) versus Fasudil ([1]; Balanol-like-324 2 μM vs Fasudil 10 μM, Sox2, Bmi1, nestin GFP reporter, Day 4, n=3): ~1.9 fold | yield of GFP+ neurospheres ([1]; FIG. 11, Rock kinase inhibitor in induction medium): increases the yield

O=S(=O)(c1cccc2cnccc12)N1CCCNCC1 [Fasudil, 1-(5-Isoquinolinesulfonyl)homopiperazine]
neurosphere morphology [2]: better morphology and clear and sharp borders | generation of neurospheres [3]: generation of neurospheres (around 50 μm)

CCCC(CCC)C(=O)[O-].[Na+] [VPA, 2-propyl-pentanoic acid, monosodium salt]
increase in number of GFP+ irNSCs per neurosphere [4]: 2.1 fold | number of neurospheres bigger than 50 μm [4]: did not significantly affect
